Blank lines part the entries; values can stand above or below the compound they belong to. Where a SMILES comes first, the peptide text is derived from it.
What was measured:
[1] = Agonist activity at CMKL1 Y268L mutant (unknown origin) expressed in COS-7 cells assessed as increase in calcium flux measured for 40 sec by Fluo-2 AM dye based assay; assay type: cell-based
Chemerin-like receptor 1 [2] = target: T1, Chemerin-like receptor 1 (Homo sapiens, UniProt Q99788); assay: Agonist activity at wild type CMKL1 (unknown origin) expressed in COS-7 cells assessed as increase in calcium flux measured for 40 sec by Fluo-2 AM dye based assay; assay type: functional, cell-based
T1 sequence (Q99788 whole entry): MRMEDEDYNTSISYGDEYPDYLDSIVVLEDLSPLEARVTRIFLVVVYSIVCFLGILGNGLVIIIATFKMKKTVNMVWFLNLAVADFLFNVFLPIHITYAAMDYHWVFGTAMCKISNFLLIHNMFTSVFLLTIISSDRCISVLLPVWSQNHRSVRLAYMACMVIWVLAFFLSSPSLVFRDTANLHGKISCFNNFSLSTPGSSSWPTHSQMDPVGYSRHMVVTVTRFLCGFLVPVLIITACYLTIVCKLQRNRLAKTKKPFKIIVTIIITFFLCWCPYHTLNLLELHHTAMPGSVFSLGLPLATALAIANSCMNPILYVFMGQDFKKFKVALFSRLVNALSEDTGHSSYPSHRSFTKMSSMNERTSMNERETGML

Chemerin-like receptor 1 [3] = target: T1, Chemerin-like receptor 1; assay: Agonist activity at Wild type CMKL1 (unknown origin) expressed in COS-7 cells assessed as accumulation of inositol phosphate incubated for 3 hrs by liquid scintillation counting method; assay type: functional, cell-based
[4] = Agonist activity at CMKL1 Y268A mutant (unknown origin) expressed in COS-7 cells assessed as increase in calcium flux measured for 40 sec by Fluo-2 AM dye based assay; assay type: cell-based
[5] = Agonist activity at CMKL1 Y263A mutant (unknown origin) expressed in COS-7 cells assessed as increase in calcium flux measured for 40 sec by Fluo-2 AM dye based assay; assay type: cell-based
[6] = Agonist activity at CMKL1 E658A mutant (unknown origin) expressed in COS-7 cells assessed as accumulation of inositol phosphate incubated for 3 hrs by liquid scintillation counting method; assay type: cell-based; details: COS-7, 3 h
[7] = Agonist activity at CMKL1 F479A mutant (unknown origin) expressed in COS-7 cells assessed as increase in calcium flux measured for 40 sec by Fluo-2 AM dye based assay; assay type: cell-based
[8] = Agonist activity at CMKL1 F476A mutant (unknown origin) expressed in COS-7 cells assessed as increase in calcium flux measured for 40 sec by Fluo-2 AM dye based assay; assay type: cell-based
[9] = Agonist activity at CMKL1 E658A mutant (unknown origin) expressed in COS-7 cells assessed as increase in calcium flux measured for 40 sec by Fluo-2 AM dye based assay; assay type: cell-based
[10] = Agonist activity at CMKL1 F479A mutant (unknown origin) expressed in COS-7 cells assessed as accumulation of inositol phosphate incubated for 3 hrs by liquid scintillation counting method; assay type: cell-based; details: COS-7, 3 h
[11] = Agonist activity at CMKL1 F476A mutant (unknown origin) expressed in COS-7 cells assessed as accumulation of inositol phosphate incubated for 3 hrs by liquid scintillation counting method; assay type: cell-based; details: COS-7, 3 h

SMILES: CC(C)C[C@H](NC(=O)[C@H](CCC(N)=O)NC(=O)CNC(=O)[C@@H]1CCCN1C(=O)[C@H](Cc1ccccc1)NC(=O)[C@@H](N)Cc1ccc(O)cc1)C(=O)N[C@@H](C)C(=O)N[C@@H](Cc1ccccc1)C(=O)N[C@@H](CO)C(=O)O
- EC50 ([1]; read-out: EC50): > 1000 nM
- EC50 ([1]; read-out: pEC50 (converted)): > 1000 nM
- EC50 (Chemerin-like receptor 1 [2]): 195 nM

SMILES: C[C@H](NC(=O)[C@H](Cc1ccccc1)NC(=O)[C@H](CCC(N)=O)NC(=O)CNC(=O)[C@@H]1CCCN1C(=O)[C@H](Cc1ccccc1)NC(=O)[C@@H](N)Cc1ccc(O)cc1)C(=O)NCc1ccccc1
- EC50 (Chemerin-like receptor 1 [2]): 32 nM

SMILES: C[C@H](NC(=O)[C@H](Cc1ccccc1)NC(=O)[C@H](CCC(N)=O)NC(=O)CNC(=O)[C@@H]1CCCN1C(=O)[C@H](Cc1ccccc1)NC(=O)[C@@H](N)Cc1ccc(O)cc1)C(=O)N[C@@H](Cc1ccccc1)C(=O)O (H-YFPGQFAF-OH)
- EC50 (Chemerin-like receptor 1 [2]): 20 nM

- EC50 (Chemerin-like receptor 1 [3]): 150 nM
- EC50 (Chemerin-like receptor 1 [2]): 64 nM
SMILES: C[C@@H]1NC(=O)[C@H](Cc2ccccc2)NC(=O)[C@H](CCC(N)=O)NC(=O)[C@@H](NC(=O)[C@@H]2CCCN2C(=O)[C@H](Cc2ccccc2)NC(=O)[C@@H](N)Cc2ccc(O)cc2)CSSC[C@@H](C(=O)O)NC(=O)[C@H](Cc2ccccc2)NC1=O (HELM PEPTIDE1{Y.F.P.C.Q.F.A.F.C}$PEPTIDE1,PEPTIDE1,4:R3-9:R3$$$V2.0)

- EC50 ([4]; read-out: EC50): > 1000 nM
- EC50 ([4]; read-out: pEC50 (converted)): > 1000 nM
- EC50 ([5]; read-out: EC50): 197 nM
- EC50 ([5]; read-out: pEC50 (converted)): 200 nM
- EC50 ([6]; read-out: EC50): > 10000 nM
- EC50 ([6]; read-out: pEC50 (converted)): > 10000 nM
- EC50 ([7]; read-out: EC50): > 1000 nM
- EC50 ([7]; read-out: pEC50 (converted)): > 1000 nM
- EC50 ([8]; read-out: EC50): 85 nM
- EC50 ([8]; read-out: pEC50 (converted)): 85.1 nM
- EC50 ([9]; read-out: EC50): > 1000 nM
- EC50 ([9]; read-out: pEC50 (converted)): > 1000 nM
- EC50 [10]: > 10000 nM
- EC50 [11]: 3890 nM
SMILES: C[C@@H]1NC(=O)[C@H](Cc2ccccc2)NC(=O)[C@H](CCC(N)=O)NC(=O)[C@H](NC(=O)[C@@H]2CCCN2C(=O)[C@H](Cc2ccccc2)NC(=O)[C@@H](N)Cc2ccc(O)cc2)CCSSC[C@@H](C(=O)O)NC(=O)[C@H](Cc2ccccc2)NC1=O (HELM PEPTIDE1{Y.F.P.[O=C([C@@H](CCS[*:3])N[*:1])[*:2]].Q.F.A.F.C}$PEPTIDE1,PEPTIDE1,4:R3-9:R3$$$V2.0)
